Consider 21 molecules from patent US11649255B2, “Indazoles as hematopoietic progenitor kinase 1 (HPK1) inhibitors and methods using same” (1st Biotherapeutics, Inc., priority 2020, dated 2023).

By IC50 is commonly meant the concentration needed to halve the response being measured.

recombinant human HPK1, sequence (Q92918 whole entry): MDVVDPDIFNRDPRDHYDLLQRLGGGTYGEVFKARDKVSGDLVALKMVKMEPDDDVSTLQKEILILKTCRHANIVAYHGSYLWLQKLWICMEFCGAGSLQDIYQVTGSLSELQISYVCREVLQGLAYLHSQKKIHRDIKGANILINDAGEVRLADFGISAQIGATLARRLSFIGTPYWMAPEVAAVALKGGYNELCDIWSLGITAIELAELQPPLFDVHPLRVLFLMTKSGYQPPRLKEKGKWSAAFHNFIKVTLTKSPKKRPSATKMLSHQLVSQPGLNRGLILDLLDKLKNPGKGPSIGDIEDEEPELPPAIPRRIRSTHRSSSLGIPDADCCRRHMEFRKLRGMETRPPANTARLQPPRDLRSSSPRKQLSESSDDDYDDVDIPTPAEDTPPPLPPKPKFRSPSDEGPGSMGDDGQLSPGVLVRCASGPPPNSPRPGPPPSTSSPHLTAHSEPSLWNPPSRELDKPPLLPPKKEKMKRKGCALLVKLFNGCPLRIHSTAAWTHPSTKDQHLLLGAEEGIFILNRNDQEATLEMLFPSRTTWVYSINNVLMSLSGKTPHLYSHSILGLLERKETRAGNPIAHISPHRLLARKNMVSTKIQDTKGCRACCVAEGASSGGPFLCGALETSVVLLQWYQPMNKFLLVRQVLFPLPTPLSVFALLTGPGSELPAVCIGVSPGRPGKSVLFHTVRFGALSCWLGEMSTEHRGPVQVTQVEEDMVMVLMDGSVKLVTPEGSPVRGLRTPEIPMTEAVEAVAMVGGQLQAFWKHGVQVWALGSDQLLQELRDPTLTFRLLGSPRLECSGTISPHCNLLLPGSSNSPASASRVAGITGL

In this assay the target is recombinant human HPK1 (Homo sapiens (Human), UniProt Q92918). Briefly: HPK1 kinase assay (ADP-Glo). In kind it is biochemical. To be noted: 25 μM ATP, MBP substrate. A digest of the protocol:
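Activity was read as ADP formed, detected by ADP-Glo luminescence after the reaction of 5 ng recombinant human HPK1 with MBP and ATP (stocks 0.5 μg/μl and 25 μM) for 40 min at 30 °C. Buffer was Tris pH 7.5 with MgCl2, BSA and DTT, with compound in 0.5% DMSO. IC50 came from inhibition curves.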
As for `CC(N)c1c(F)c(Cl)c(-c2ccc3nc(NC(=O)[C@@H]4C[C@@H]4F)cn3c2)c2cn[nH]c12` (stereo partly drawn) [Example 399, (1S,2S)-N-(6-(7-(1-aminoethyl)-5-chloro-6-fluoro-1H-indazol-4-yl)imidazo[1,2-a]pyridin-2-yl)-2-fluorocyclopropane-1-carboxamide], the IC50 is under 100 nM.

Regarding `Cc1c(F)c([S+](C)[O-])c2[nH]ncc2c1-c1ccc2nc(NC(=O)[C@@H]3C[C@@H]3F)sc2c1` (stereo partly drawn) [Example 66, (1S,2S)-2-fluoro-N-(6-(6-fluoro-5-methyl-7-(methylsulfinyl)-1H-indazol-4-yl)benzo[d]thiazol-2-yl)cyclopropane-1-carboxamide], the IC50 was under 100 nM.

For `CC(=O)Nc1c(F)c(Cl)c(-c2ccc3nc(NC(=O)[C@@H]4C[C@@H]4F)sc3n2)c2cn[nH]c12` [Example 179, (1S,2S)-N-(5-(7-acetamido-5-chloro-6-fluoro-1H-indazol-4-yl)thiazolo[5,4-b]pyridin-2-yl)-2-fluorocyclopropane-1-carboxamide], the IC50 is under 100 nM.

Consider `C[C@H]1[C@H](C(=O)Nc2cc3cc(-c4c(Cl)c(F)c(N(C)C)c5[nH]ncc45)ccn3n2)[C@H]1c1cnn(C)c1` [Example 646, (1S,2R,3S)-N-(5-(5-chloro-7-(dimethylamino)-6-fluoro-1H-indazol-4-yl)pyrazolo[1,5-a]pyridin-2-yl)-2-methyl-3-(1-methyl-1H-pyrazol-4-yl)cyclopropane-1-carboxamide], for which the concentration for half-maximal inhibition (IC50) was under 100 nM.

With `N#CCNc1c(F)c(Cl)c(-c2ccn3nc(NC(=O)[C@@H]4C[C@@H]4F)cc3c2)c2cn[nH]c12` [Example 636, (1S,2S)-N-(5-(5-chloro-7-((cyanomethyl)amino)-6-fluoro-1H-indazol-4-yl)pyrazolo[1,5-a]pyridin-2-yl)-2-fluorocyclopropane-1-carboxamide], the IC50 was under 100 nM.

In the case of `N#Cc1c(F)c(Cl)c(-c2ccn3nc(NC(=O)[C@@H]4C[C@@H]4F)cc3c2)c2cn[nH]c12` [Example 586, (1S,2S)-N-(5-(5-chloro-7-cyano-6-fluoro-1H-indazol-4-yl)pyrazolo[1,5-a]pyridin-2-yl)-2-fluorocyclopropane-1-carboxamide], the IC50 was under 100 nM.

For the molecule `CNC1CCC(N(C)c2c(F)c(Cl)c(-c3ccn4nc(NC(=O)[C@@H]5C[C@@H]5F)cc4c3)c3cn[nH]c23)CC1` (stereo partly drawn) [Example 505, (1S,2S)-N-(5-(5-chloro-6-fluoro-7-(methyl((1S,4S)-4-(methylamino)cyclohexyl)amino)-1H-indazol-4-yl)pyrazolo[1,5-a]pyridin-2-yl)-2-fluorocyclopropane-1-carboxamide], the IC50 is under 100 nM.

For the molecule `Cc1c(F)cc2[nH]nc(I)c2c1-c1ccc2nc(NC(=O)[C@@H]3C[C@@H]3F)sc2c1` [Example 45, (1S,2S)-2-fluoro-N-(6-(6-fluoro-3-iodo-5-methyl-1H-indazol-4-yl)benzo[d]thiazol-2-yl)cyclopropane-1-carboxamide], the IC50 was over 1000 nM.

With `COC(=O)c1c(F)c(Cl)c(-c2ccn3nc(NC(=O)[C@@H]4C[C@@H]4F)cc3c2)c2cn[nH]c12` [Example 554, methyl 5-chloro-6-fluoro-4-(2-((1S,2S)-2-fluorocyclopropane-1-carboxamido)pyrazolo[1,5-a]pyridin-5-yl)-1H-indazole-7-carboxylate], the IC50 was under 100 nM.

In the case of `Cc1ccc2[nH]ncc2c1-c1ccc2nc(NC(=O)c3ccccc3)sc2c1` [Example 8, N-(6-(5-methyl-1H-indazol-4-yl)benzo[d]thiazol-2-yl)benzamide], the half-maximal inhibitory concentration (IC50) was over 1000 nM.

For the molecule `C=Cc1n[nH]c2cc(F)c(C)c(-c3ccc4nc(NC(=O)[C@@H]5C[C@@H]5F)sc4c3)c12` [Example 52, (1S,2S)-2-fluoro-N-(6-(6-fluoro-5-methyl-3-vinyl-1H-indazol-4-yl)benzo[d]thiazol-2-yl)cyclopropane-1-carboxamide], the IC50 was over 1000 nM.

Regarding `CNC(=O)c1c(F)c(Cl)c(-c2ccc3nc(NC(=O)[C@@H]4C[C@@H]4F)cn3c2)c2cn[nH]c12` [Example 321, 5-chloro-6-fluoro-4-(2-((1S,2S)-2-fluorocyclopropane-1-carboxamido)imidazo[1,2-a]pyridin-6-yl)-N-methyl-1H-indazole-7-carboxamide], the concentration for half-maximal inhibition (IC50) is under 100 nM.

Consider `Cc1c(F)c(OC(F)(F)F)c2[nH]ncc2c1-c1ccn2nc(NC(=O)[C@@H]3C[C@@H]3F)cc2c1` [Example 592, (1S,2S)-2-fluoro-N-(5-(6-fluoro-5-methyl-7-(trifluoromethoxy)-1H-indazol-4-yl)pyrazolo[1,5-a]pyridin-2-yl)cyclopropane-1-carboxamide], for which the IC50 is under 100 nM.

For `O=C(Nc1nc2ccc(-c3c(-c4cccs4)ccc4[nH]ncc34)cc2s1)C1CC1` [Example 13, N-(6-(5-(thiophen-2-yl)-1H-indazol-4-yl)benzo[d]thiazol-2-yl)cyclopropanecarboxamide], the concentration for half-maximal inhibition (IC50) was over 1000 nM.

Regarding `Cc1c(F)c(F)c2[nH]ncc2c1-c1ccc2nc(NC(=O)[C@@H]3C[C@@H]3F)cn2c1` [Example 262, (1S,2S)-N-(6-(6,7-difluoro-5-methyl-1H-indazol-4-yl)imidazo[1,2-a]pyridin-2-yl)-2-fluorocyclopropane-1-carboxamide], the IC50 was under 100 nM.

Regarding `O=C(Nc1cn2cc(-c3c(Cl)c(F)c(F)c4[nH]ncc34)ccc2n1)[C@@H]1C[C@@H]1F` [Example 323, (1S,2S)-N-(6-(5-chloro-6,7-difluoro-1H-indazol-4-yl)imidazo[1,2-a]pyridin-2-yl)-2-fluorocyclopropane-1-carboxamide], the concentration for half-maximal inhibition (IC50) is under 100 nM.

Take `CSc1c(F)c(F)c2[nH]ncc2c1-c1ccc2nc(NC(=O)[C@@H]3C[C@@H]3F)sc2n1` [Example 187, (1S,2S)-N-(5-(6,7-difluoro-5-(methylthio)-1H-indazol-4-yl)thiazolo[5,4-b]pyridin-2-yl)-2-fluorocyclopropane-1-carboxamide]: the half-inhibitory concentration (IC50) was under 100 nM.

For the molecule `CN(C)C(=O)CN(C)c1c(F)c(Cl)c(-c2ccc3nc(NC(=O)[C@@H]4C[C@@H]4F)sc3c2)c2cn[nH]c12` [Example 100, (1S,2S)-N-(6-(5-chloro-7-((2-(dimethylamino)-2-oxoethyl)(methyl)amino)-6-fluoro-1H-indazol-4-yl)benzo[d]thiazol-2-yl)-2-fluorocyclopropane-1-carboxamide], the IC50 was under 100 nM.

For the molecule `C=Cc1c(F)cc2[nH]ncc2c1-c1ccc2nc(NC(=O)C3CC3)cn2c1` [Example 235, N-(6-(6-fluoro-5-vinyl-1H-indazol-4-yl)imidazo[1,2-a]pyridin-2-yl)cyclopropanecarboxamide], the IC50 is under 100 nM.

Regarding `O=C(CCO)Nc1c(F)c(Cl)c(-c2ccc3nc(NC(=O)[C@@H]4C[C@@H]4F)cn3c2)c2cn[nH]c12` [Example 369, (1S,2S)-N-(6-(5-chloro-6-fluoro-7-(3-hydroxypropanamido)-1H-indazol-4-yl)imidazo[1,2-a]pyridin-2-yl)-2-fluorocyclopropane-1-carboxamide], the half-maximal inhibitory concentration (IC50) was under 100 nM.

As to `O=C(Nc1cc2cc(-c3c(Cl)c(F)c(F)c4[nH]ncc34)ccn2n1)[C@@H]1C[C@@H]1F` [Example 536, (1S,2S)-N-(5-(5-chloro-6,7-difluoro-1H-indazol-4-yl)pyrazolo[1,5-a]pyridin-2-yl)-2-fluorocyclopropane-1-carboxamide], the IC50 was under 100 nM.
